According to US4864023A, “Pyrido(3,2,1-IJ)-1,3,4-benzoxadiazine derivatives” (priority 1988, dated 1989):
Values after ≈ are worked out from the molar mass of the structure shown. Read-outs that look alike come from different tables or passages of the source.

Experiments:
Experiment in all cases: in vitro antibacterial activity, standard agar dilution method
Type in all cases: cell-based
[1] = system: Pseudomonas aeruginosa NR 2950; settings: NR2950, aerobic, read-out: minimum inhibitory concentration (MIC)
[2] = system: Klebsiella pneumoniae FDA PCI 602; settings: FDAPCI602, aerobic, read-out: minimum inhibitory concentration (MIC)
[3] = system: Proteus rettgeri ATCC 14505; settings: Providencia rettgeri, ATCC14505, aerobic, read-out: minimum inhibitory concentration (MIC)
[4] = system: Escherichia coli NIHJ JC-2; settings: NIHJJC2, aerobic, read-out: minimum inhibitory concentration (MIC)
[5] = system: Alcaligenes faecalis IFO 13111; settings: IFO13111, aerobic, read-out: minimum inhibitory concentration (MIC)
[6] = system: Enterococcus faecalis NR 2943; settings: NR2943, aerobic, read-out: minimum inhibitory concentration (MIC)
[7] = system: Staphylococcus aureus NR 2855
[8] = system: Bacillus subtilis PCI 219; settings: PCI219, aerobic, read-out: minimum inhibitory concentration (MIC)
[9] = system: Citrobacter freundii IFO 12681; settings: IFO12681, aerobic, read-out: minimum inhibitory concentration (MIC)
Escherichia coli NR 2630 = settings: NR2630; Escherichia coli NR 2630; aerobic; agar dilution; read-out: minimum inhibitory concentration (MIC)
[10] = system: Staphylococcus aureus FDA 209P JC-1; settings: FDA209P, read-out: minimum inhibitory concentration (MIC)
[11] = system: Bordetella bronchiseptica ATCC 4617; settings: ATCC4617, aerobic, read-out: minimum inhibitory concentration (MIC)
[12] = system: Enterobacter cloacae NR 2946; settings: NR2946, aerobic, read-out: minimum inhibitory concentration (MIC)
[13] = system: Staphylococcus aureus Smith; settings: Staphylococcus aureus Smith; aerobic; agar dilution; read-out: minimum inhibitory concentration (MIC)
[14] = system: Staphylococcus epidermidis IFO 12993; settings: IFO12993, aerobic, read-out: minimum inhibitory concentration (MIC)
[15] = system: Staphylococcus epidermidis NR 2942; settings: NR2942, aerobic, read-out: minimum inhibitory concentration (MIC)
[16] = system: Enterobacter aerogenes NR 2945; settings: Klebsiella aerogenes, NR2945, aerobic, read-out: minimum inhibitory concentration (MIC)
[17] = system: Pseudomonas stutzeri IFO 12695; settings: Stutzerimonas stutzeri, IFO12695, aerobic, read-out: minimum inhibitory concentration (MIC)
[18] = system: Salmonella typhimurium IFO 12529; settings: Salmonella enterica, aerobic, read-out: minimum inhibitory concentration (MIC)
[19] = system: Serratia marcescens IFO 12648; settings: IFO12648, aerobic, read-out: minimum inhibitory concentration (MIC)
[20] = system: Pseudomonas aeruginosa A3; settings: aerobic, read-out: minimum inhibitory concentration (MIC)
[21] = system: Proteus vulgaris OX19 ATCC 6898; settings: ATCC6898, aerobic, read-out: minimum inhibitory concentration (MIC)
[22] = NR2855, Staphylococcus aureus NR 2855, aerobic, agar dilution, read-out: minimum inhibitory concentration (MIC)
[23] = Staphylococcus aureus FDA 209P JC-1, aerobic, agar dilution
[24] = Staphylococcus aureus, NR2855, read-out: minimum inhibitory concentration (MIC)

Structure (SMILES) | MIC [1] | MIC [2] | MIC [3] | MIC [4] | MIC [5] | MIC [6] | MIC [7, 22] | MIC [8] | MIC [9] | MIC [11] | MIC [12] | MIC [13] | MIC [14] | MIC [15] | MIC [16] | MIC [17] | MIC [18] | MIC [19] | MIC [20] | MIC [21] | also measured
CN1COc2c(N3CCNC(c4ccccc4)C3)c(F)cc3c(=O)c(C(=O)O)cn1c23 (stereo not drawn) [Example 8] | 3.13 mg/L (≈ 7.37 µM) | 0.2 mg/L (≈ 0.471 µM) | 0.39 mg/L (≈ 0.919 µM) | 0.05 mg/L (≈ 0.118 µM) | 0.78 mg/L (≈ 1.84 µM) | 6.25 mg/L (≈ 14.7 µM) | 0.39 mg/L (≈ 0.919 µM) | 0.025 mg/L (≈ 0.0589 µM) | 0.025 mg/L (≈ 0.0589 µM) | 0.39 mg/L (≈ 0.919 µM) | 0.05 mg/L (≈ 0.118 µM) | 0.2 mg/L (≈ 0.471 µM) | 0.39 mg/L (≈ 0.919 µM) | 0.39 mg/L (≈ 0.919 µM) | 0.025 mg/L (≈ 0.0589 µM) | 0.025 mg/L (≈ 0.0589 µM) | 0.025 mg/L (≈ 0.0589 µM) | 0.1 mg/L (≈ 0.236 µM) | 0.39 mg/L (≈ 0.919 µM) | 0.025 mg/L (≈ 0.0589 µM) | MIC (Escherichia coli NR 2630): 0.013 mg/L (≈ 0.0306 µM); MIC [10, 23]: 0.39 mg/L (≈ 0.919 µM)
CN1COc2c(N3CCOCC3)c(F)cc3c(=O)c(C(=O)O)cn1c23 [Example 9, 9-Fluoro-3-methyl-10-morpholino-7-oxo-2,3-dihydro-7H-pyrido[3,2,1-ij]-1,3,4-benzoxadiazine-6-carboxylic acid] | 12.5 mg/L (≈ 35.8 µM) | 3.13 mg/L (≈ 8.96 µM) | 1.56 mg/L (≈ 4.47 µM) | 0.1 mg/L (≈ 0.286 µM) | 6.25 mg/L (≈ 17.9 µM) | 12.5 mg/L (≈ 35.8 µM) | 0.0065 mg/L (≈ 0.0186 µM) | ≤ 0.0008 mg/L | 0.39 mg/L (≈ 1.12 µM) | 1.56 mg/L (≈ 4.47 µM) | 0.013 mg/L (≈ 0.0372 µM) | 0.0033 mg/L (≈ 0.00945 µM) | 0.2 mg/L (≈ 0.573 µM) | 0.0065 mg/L (≈ 0.0186 µM) | 0.0065 mg/L (≈ 0.0186 µM) | ≤ 0.0008 mg/L | 0.0033 mg/L (≈ 0.00945 µM) | 0.78 mg/L (≈ 2.23 µM) | 6.25 mg/L (≈ 17.9 µM) | ≤ 0.0008 mg/L | MIC (Escherichia coli NR 2630): ≤ 0.0008 mg/L; MIC [10, 23]: 0.2 mg/L (≈ 0.573 µM)
CN1COc2c(N3CCC(O)CC3)c(F)cc3c(=O)c(C(=O)O)cn1c23 [Example 13, 9-fluoro-10-(4-hydroxy-1-piperidyl)-3-methyl-7-oxo-2,3-dihydro-7H-pyrido[3,2,1-ij]-1,3,4-benzoxadiazine-6-carboxylic acid] | 6.25 mg/L (≈ 17.2 µM) | 0.78 mg/L (≈ 2.15 µM) | 0.78 mg/L (≈ 2.15 µM) | 0.39 mg/L (≈ 1.07 µM) | 3.13 mg/L (≈ 8.61 µM) | 3.13 mg/L (≈ 8.61 µM) | 0.05 mg/L (≈ 0.138 µM) | ≤ 0.0008 mg/L | 0.39 mg/L (≈ 1.07 µM) | 0.78 mg/L (≈ 2.15 µM) | 0.39 mg/L (≈ 1.07 µM) | 0.025 mg/L (≈ 0.0688 µM) | 0.1 mg/L (≈ 0.275 µM) | 0.05 mg/L (≈ 0.138 µM) | 0.2 mg/L (≈ 0.55 µM) | 0.1 mg/L (≈ 0.275 µM) | 0.1 mg/L (≈ 0.275 µM) | 0.39 mg/L (≈ 1.07 µM) | 1.56 mg/L (≈ 4.29 µM) | 0.05 mg/L (≈ 0.138 µM) | MIC [10, 23]: 0.1 mg/L (≈ 0.275 µM)
CN1COc2c(N3CCN(CCO)CC3)c(F)cc3c(=O)c(C(=O)O)cn1c23 [Example 15] | 3.13 mg/L (≈ 7.98 µM) | 0.39 mg/L (≈ 0.994 µM) | 0.78 mg/L (≈ 1.99 µM) | 0.1 mg/L (≈ 0.255 µM) | 3.13 mg/L (≈ 7.98 µM) | 6.25 mg/L (≈ 15.9 µM) | 0.78 mg/L (≈ 1.99 µM) | 0.05 mg/L (≈ 0.127 µM) | 0.05 mg/L (≈ 0.127 µM) | 0.78 mg/L (≈ 1.99 µM) | 0.1 mg/L (≈ 0.255 µM) | 0.39 mg/L (≈ 0.994 µM) | 0.78 mg/L (≈ 1.99 µM) | 0.78 mg/L (≈ 1.99 µM) | 0.05 mg/L (≈ 0.127 µM) | 0.05 mg/L (≈ 0.127 µM) | 0.05 mg/L (≈ 0.127 µM) | 0.39 mg/L (≈ 0.994 µM) | 0.78 mg/L (≈ 1.99 µM) | 0.025 mg/L (≈ 0.0637 µM) | MIC [10, 23]: 0.78 mg/L (≈ 1.99 µM)
CC(=O)NCC1CCN(c2c(F)cc3c(=O)c(C(=O)O)cn4c3c2OCN4C)C1 (stereo not drawn) [Example 19, 10-[3-(acetylaminomethyl)-1-pyrrolidinyl]-9-fluoro-3-methyl-7-oxo-2,3-dihydro-7H-pyrido[3,2,1-ij]-1,3,4-benzoxadiazine-6-carboxylic acid] | 25 mg/L (≈ 61.8 µM) | 6.25 mg/L (≈ 15.5 µM) | 3.13 mg/L (≈ 7.74 µM) | 1.56 mg/L (≈ 3.86 µM) | 6.25 mg/L (≈ 15.5 µM) | 6.25 mg/L (≈ 15.5 µM) | – | 0.05 mg/L (≈ 0.124 µM) | 1.56 mg/L (≈ 3.86 µM) | 6.25 mg/L (≈ 15.5 µM) | 1.56 mg/L (≈ 3.86 µM) | 0.2 mg/L (≈ 0.495 µM) | 0.39 mg/L (≈ 0.964 µM) | 0.39 mg/L (≈ 0.964 µM) | 1.56 mg/L (≈ 3.86 µM) | 0.39 mg/L (≈ 0.964 µM) | 1.56 mg/L (≈ 3.86 µM) | 3.13 mg/L (≈ 7.74 µM) | 6.25 mg/L (≈ 15.5 µM) | 0.39 mg/L (≈ 0.964 µM) | MIC [7, 24]: 0.39 mg/L (≈ 0.964 µM); MIC (Escherichia coli NR 2630): 0.39 mg/L (≈ 0.964 µM); MIC ([10]; Staphylococcus aureus): 0.39 mg/L (≈ 0.964 µM)
CN1CCN(c2c(F)cc3c(=O)c(C(=O)O)cn4c3c2OC(CO)N4C)CC1 (stereo not drawn) [Example 27] | 25 mg/L (≈ 63.7 µM) | 3.13 mg/L (≈ 7.98 µM) | 12.5 mg/L (≈ 31.9 µM) | 0.78 mg/L (≈ 1.99 µM) | 50 mg/L (≈ 127 µM) | 50 mg/L (≈ 127 µM) | 12.5 mg/L (≈ 31.9 µM) | 0.39 mg/L (≈ 0.994 µM) | 0.2 mg/L (≈ 0.51 µM) | 25 mg/L (≈ 63.7 µM) | 0.78 mg/L (≈ 1.99 µM) | 1.56 mg/L (≈ 3.98 µM) | 6.25 mg/L (≈ 15.9 µM) | 6.25 mg/L (≈ 15.9 µM) | 0.2 mg/L (≈ 0.51 µM) | 0.2 mg/L (≈ 0.51 µM) | 0.39 mg/L (≈ 0.994 µM) | 3.13 mg/L (≈ 7.98 µM) | 3.13 mg/L (≈ 7.98 µM) | 0.2 mg/L (≈ 0.51 µM) | MIC [10, 23]: 1.56 mg/L (≈ 3.98 µM)
CC(=O)N1CCN(c2c(F)cc3c(=O)c(C(=O)O)cn4c3c2OCN4C)CC1 [Example 50, 10-(4-acetyl-1-piperazinyl)-9-fluoro-3-methyl-7-oxo-2,3-dihydro-7H-pyrido[3,2,1-ij]-1,3,4-benzoxadiazine-6-carboxylic acid] | 25 mg/L (≈ 64 µM) | 6.25 mg/L (≈ 16 µM) | 6.25 mg/L (≈ 16 µM) | 1.56 mg/L (≈ 4 µM) | 12.5 mg/L (≈ 32 µM) | 3.13 mg/L (≈ 8.02 µM) | – | 0.0065 mg/L (≈ 0.0167 µM) | 3.13 mg/L (≈ 8.02 µM) | 3.13 mg/L (≈ 8.02 µM) | 1.56 mg/L (≈ 4 µM) | 0.1 mg/L (≈ 0.256 µM) | 0.39 mg/L (≈ 0.999 µM) | 0.2 mg/L (≈ 0.512 µM) | 0.78 mg/L (≈ 2 µM) | – | 0.78 mg/L (≈ 2 µM) | 3.13 mg/L (≈ 8.02 µM) | 6.25 mg/L (≈ 16 µM) | 0.39 mg/L (≈ 0.999 µM) | MIC [7, 24]: 0.39 mg/L (≈ 0.999 µM); MIC (Escherichia coli NR 2630): 0.2 mg/L (≈ 0.512 µM); MIC ([10]; Staphylococcus aureus): 0.39 mg/L (≈ 0.999 µM)
